Experimental findings from patent publication US4999371A, “Substituted 3,4-dihydro-2H-benzopyrans, processes for their preparation, their use and pharmaceutical products based on these compounds” (Hoechst Aktiengesellschaft, priority 1987, dated 1991) are described below.

This assay relates to Langendorff heart preparation. Nature of the assay: Coronary flow in the Langendorff heart preparation of Guinea pigs. Conditions: 6 heart preparations. How it is done: Coronary flow in the Langendorff heart preparation of Guinea pigs
Guinea pigs of either sex were killed by a blow on the head. The hearts were quickly removed and perfused according to Langendorff (Langendorff, Pflugers Arch. Ges. Physiol. 190, 280 (1895)) with a Ringer solution containing 154 mMol NaCl, 5,6 mMol KCl, 1,9 mMol CaCl2, 2,4 mMol NaHCO3 and 5 mMol glucose which was gassed with oxygen. The temperature of the solution was 37° C. The test substances dissolved in propanediol (0,1%) were added to the inflowing Ringer solution by bolus injection into the inflow tract. The effect, i.e. changes of the coronary outflow, was measured with a drop counter and registered on a Hellige Multiscriptor (Hellige GmbH, Freiburg, Germany) For each compound increase in coronary outflow was measured for three different doses and each dose was tested in 6 different heart preparations.

For the compound `CC1(C)Oc2ccc(S(=O)(=O)c3ccccc3)cc2[C@@H](N2CCCC2=O)[C@@H]1O` (single isomer, unassigned) [Example 5a, (+)-3,4-Dihydro-2,2-dimethyl-6-phenylsulfonyl-4-(2-oxo-1-pyrrolidinyl)-2H-benzo[b]pyran-3-ol], where the note is “single dose 100 ng”, the “Duration of elevated coronary outflow” value worked out at 13 min. Regarding `Cc1ccccc1S(=O)(=O)c1ccc2c(c1)[C@@H](N1CCCC1=O)[C@H](O)C(C)(C)O2` (relative stereo) [Example 14, 3,4-Dihydro-2,2-dimethyl-6-(2-methylphenylsulfonyl)-trans4-(2-oxo-1-pyrrolidinyl)-2H-benzo [b]pyran-3-ol], under “single dose 200 ng”, the “Duration of elevated coronary outflow” value came out at 13 min. With `CC1(C)Oc2ccc(C#N)cc2[C@@H](N2CCCC2=O)[C@@H]1O` (racemic) [(±)-6-Cyano-3,4-dihydro-2,2-dimethyl-trans-4-(2-oxo-1-pyrrolidinyl)-2H-benzo[b]pyran-3-ol, reference compound], the “Duration of elevated coronary outflow” value (single dose 500 ng) was found to be 6 min.

Regarding `CC1(C)Oc2ccc(S(=O)(=O)c3ccccc3)cc2[C@@H](N2CCCC2=O)[C@@H]1O` (relative stereo) [Example 5, 3,4-Dihydro-2,2-dimethyl-6-phenylsulfonyl-trans-4-(2-oxo1-pyrrolidinyl)-2H-benzo[b]pyran-3-ol], the “Duration of elevated coronary outflow” value (single dose 400 ng) amounted to 11 min. Regarding `COc1cc2c(cc1S(=O)(=O)c1ccccc1)[C@@H](N1CCCC1=O)[C@H](O)C(C)(C)O2` (relative stereo) [Example 3, 3,4-Dihydro-2,2-dimethyl7-methoxy-6-phenylsulfonyl-trans-4-(2-oxo-1-pyrrolidinyl)-2H -benzo[b]-3-ol], the “Duration of elevated coronary outflow” value (single dose 500 ng) is recorded as 14 min. On the same count and under the same terms, as for `Cc1ccc(S(=O)(=O)c2ccc3c(c2)[C@@H](N2CCCC2=O)[C@H](O)C(C)(C)O3)cc1` (relative stereo) [Example 4, 3,4-Dihydro-2,2-dimethyl-6-(4-methylphenylsulfonyl)-trans-4-(2-oxo-1-pyrrolidinyl)-2H -benzo[b]pyran-3-ol], the figure is 11 min. For the compound `CC1(C)Oc2ccc(S(C)(=O)=O)cc2[C@@H](N2CCCC2=O)[C@@H]1O` (racemic) [(±)-2,2-Dimethyl-3,4-dihydro-6-methylsulfonyl-trans-4-(2-oxo-1-pyrrolidinyl)-2H-benzo[b]pyran-3-ol, reference compound], the “Duration of elevated coronary outflow” value (single dose 2000 ng) turned out to be 5 min.

As to `COc1cc2c(cc1S(=O)(=O)c1ccccc1)[C@@H](N1CCCC1=O)[C@H](O)C(C)(C)O2` [Example 3a, (+)-3,4-dihydro-2,2-dimethyl-7-methoxy-6-phenylsulfonyl-trans-4-(2-oxo-1-pyrrolidinyl)-2H-benzo[b]pyran-3-ol], under “single dose 500 ng”, the “Duration of elevated coronary outflow” value is given as 11 min.
